Measured values taken from US10501479B2, “Benzenesulfonyl-asymmetric ureas and medical uses thereof” (HELSINN HEALTHCARE SA, priority 2016, dated 2019).

Columns and labels:
Assay type in all cases: cell-based
[1] = target: T1, GHSR-1a (HEK293/GHSR1a cell line) (Homo sapiens, UniProt Q92847); assay: Ghrelin agonist potency (EC50) with calcium FLIPR assay; conditions: ghrelin agonist potency, read-out: Activity EC50/EMax
T1 construct: expressed in transfected cells; host or cells: HEK293/GHSR1a cell line
T1 sequence (Q92847 whole entry): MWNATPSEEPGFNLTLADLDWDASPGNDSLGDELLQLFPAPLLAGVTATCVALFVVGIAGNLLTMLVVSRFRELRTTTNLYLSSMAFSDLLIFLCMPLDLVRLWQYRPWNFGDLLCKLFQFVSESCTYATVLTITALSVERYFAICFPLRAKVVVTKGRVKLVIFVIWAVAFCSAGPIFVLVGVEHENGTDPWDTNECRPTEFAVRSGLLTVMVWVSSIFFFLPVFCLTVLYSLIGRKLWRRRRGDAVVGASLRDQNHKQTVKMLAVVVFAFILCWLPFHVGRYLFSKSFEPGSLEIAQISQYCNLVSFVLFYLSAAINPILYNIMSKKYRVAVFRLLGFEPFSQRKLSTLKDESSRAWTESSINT
Summary of the method: (§1)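 Potency values were estimated from dose-response curves of relative fluorescence, with calcium followed for 2 minutes after additions at t=20 sec. Agonism was tested with compound alone. Antagonism was tested with compound plus 10 nM ghrelin and scored as a reduction of the ghrelin signal.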

[2] = target: T1, GHSR-1a (HEK293/GHSR1a cell line); assay: Ghrelin antagonist potency (IC50) with calcium FLIPR assay, ghrelin 10 nM; conditions: ghrelin antagonist potency, read-out: Activity IC50
Summary of the method: as §1

[3] = target: T2, recombinant human ghrelin receptor (HEK293/GRLN) (Homo sapiens, UniProt Q92847); assay: Ghrelin inverse agonist potency (EC50) with IP-1 (IP-One HTRF) assay; conditions: ghrelin inverse agonist potency, IP-1 assay; read-out: Activity EC50
T2 construct: expressed in transfected cells
T2 sequence (Q92847 whole entry): as above
Summary of the method: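 HEK293/GRLN cells were seeded 18-22 hours before the test, then exposed to compound in stimulation buffer for 1 hour at 37° C, 5% CO2. IP-1 was detected by IP-One HTRF (IP1-d2 plus Tb-cryptate, 1 hour RT), reading 620 and 665 nm; the inverse agonist EC50 was derived from this.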

| Structure (SMILES) | EC50 [1] | IC50 [2] | EC50 [3] |
| --- | --- | --- | --- |
| CC(NC(=O)Nc1ccc(S(=O)(=O)CC2=CC3CCC(C2)N3)cc1)c1cccc(Cl)c1Cl (stereo not drawn) [H1488, 1-(4-(((8-azabicyclo[3.2.1]oct-2-en-3-yl)methyl)sulfonyl)phenyl)-3-(1-(2,3-dichlorophenyl)ethyl)urea] | > 30000 nM | 2050 nM | 668 nM |
| O=C(Nc1ccc(S(=O)(=O)Cc2ccc3c(c2)CNC3)cc1)N(O)Cc1ccccc1 [H1502, 1-benzyl-1-hydroxy-3-(4-((isoindolin-5-ylmethyl)sulfonyl)phenyl)urea] | > 30000 nM | 164 nM | 35.1 nM |
| CN1Cc2ccc(CS(=O)(=O)c3ccc(NC(=O)N(O)Cc4ccccc4)cc3)cc2C1 [H1503, 1-benzyl-1-hydroxy-3-(4-(((2-methylisoindolin-5-yl)methyl)sulfonyl)phenyl)urea] | > 30000 nM | 512 nM | 101 nM |
| CC(NC(=O)Nc1ccc(S(=O)(=O)Cc2ccc3c(c2)CNC3)c(-c2ncco2)c1)c1ccccc1 (stereo not drawn) [H1507, 1-(4-((isoindolin-5-ylmethyl)sulfonyl)-3-(oxazol-2-yl)phenyl)-3-(1-phenylethyl)urea] | > 30000 nM | 12.8 nM | 19.7 nM |
| CC(NC(=O)Nc1ccc(S(=O)(=O)Cc2ccc3c(c2)CN(C)C3)c(-c2ncco2)c1)c1ccccc1 (stereo not drawn) [H1508, 1-(4-(((2-methylisoindolin-5-yl)methyl)sulfonyl)-3-(oxazol-2-yl)phenyl)-3-(1-phenylethyl)urea] | > 30000 nM | 61.8 nM | 30 nM |
| CC(NC(=O)Nc1ccc(S(=O)(=O)Cc2ccc3c(c2)CNC3)cc1C(C)(C)O)c1ccccc1 (stereo not drawn) [H1512, 1-(2-(2-hydroxypropan-2-yl)-4-((isoindolin-5-ylmethyl)sulfonyl)phenyl)-3-(1-phenylethyl)urea] | > 30000 nM | 582 nM | 273 nM |
| CC(=O)N1C2CC=C(CS(=O)(=O)c3ccc(NC(=O)NC(C)c4cccc(Cl)c4Cl)cc3)C1CC2 (stereo not drawn) [H1513, 1-(4-(((8-acetyl-8-azabicyclo[3.2.1]oct-2-en-2-yl)methyl)sulfonyl)phenyl)-3-(1-(2,3-dichlorophenyl)ethyl)urea] | > 30000 nM | 14600 nM | 707 nM |
| CC(NC(=O)Nc1ccc(S(=O)(=O)CC2=CCC3CCC2N3C(C)C)cc1)c1cccc(Cl)c1Cl (stereo not drawn) [H1514, 1-(1-(2,3-dichlorophenyl)ethyl)-3-(4-(((8-isopropyl-8-azabicyclo[3.2.1]oct-2-en-2-yl)methyl)sulfonyl)phenyl)urea] | > 30000 nM | 16200 nM | 17.6 nM |
| CC(NC(=O)Nc1ccc(S(=O)(=O)Cc2ccc3c(c2)CNC3)c(CO)c1)c1ccccc1 (stereo not drawn) [H1520, 1-(3-(hydroxymethyl)-4-((isoindolin-5-ylmethyl)sulfonyl)phenyl)-3-(1-phenylethyl)urea] | > 30000 nM | 26.2 nM | 12.7 nM |
| Cc1ccc(C(C)NC(=O)Nc2ccc(S(=O)(=O)Cc3ccc4c(c3)CNC4)cc2)cc1C(F)F (stereo not drawn) [H1521, 1-(1-(3-(difluoromethyl)-4-methylphenyl)ethyl)-3-(4-((isoindolin-5-ylmethyl)sulfonyl)phenyl)urea] | > 30000 nM | 52.3 nM | 17.8 nM |
| CC(NC(=O)Nc1ccc2c(c1)S(=O)(=O)C(c1ccc3c(c1)CNC3)C2=O)c1ccccc1 (stereo not drawn) [H1522, 1-(2-(isoindolin-5-yl)-1,1-dioxido-3-oxo-2,3-dihydrobenzo[b]thiophen-6-yl)-3-(1-phenylethyl)urea] | > 30000 nM | 3850 nM | 1890 nM |
| COc1cc(S(=O)(=O)Cc2ccc3c(c2)CC(C)NC3)ccc1NC(=O)N(O)C(C)c1ccccc1 (stereo not drawn) [H1524, 1-hydroxy-3-(2-methoxy-4-(((3-methyl-1,2,3,4-tetrahydroisoquinolin-6-yl)methyl)sulfonyl)phenyl)-1-(1-phenylethyl)urea] | > 30000 nM | 9.77 nM | 12.6 nM |
| COc1cc(S(=O)(=O)Cc2ccc3c(c2)CCN(C)C3)ccc1NC(=O)N(O)C(C)c1ccccc1 (stereo not drawn) [H1525, 1-hydroxy-3-(2-methoxy-4-(((2-methyl-1,2,3,4-tetrahydroisoquinolin-6-yl)methyl)sulfonyl)phenyl)-1-(1-phenylethyl)urea] | > 30000 nM | 37.4 nM | 25.5 nM |
| CC(NC(=O)Nc1ccc(S(=O)(=O)Cc2ccc3c(c2)CNC3)cc1-c1ccnn1C)c1ccccc1 (stereo not drawn) [H1528, 1-(4-((isoindolin-5-ylmethyl)sulfonyl)-2-(1-methyl-1H-pyrazol-5-yl)phenyl)-3-(1-phenylethyl)urea] | > 30000 nM | 581 nM | 83.3 nM |
| CNC(=O)c1cc(NC(=O)NC(C)c2ccccc2)ccc1S(=O)(=O)Cc1ccc2c(c1)CNC2 (stereo not drawn) [H1529, 2-((isoindolin-5-ylmethyl)sulfonyl)-N-methyl-5-(3-(1-phenylethyl)ureido)benzamide] | > 30000 nM | 47.4 nM | 27.8 nM |
| CC(NC(=O)Nc1ccc(S(=O)(=O)Cc2ccc3c(c2)CNC3)c(C(=O)O)c1)c1ccccc1 (stereo not drawn) [H1530, 2-((isoindolin-5-ylmethyl)sulfonyl)-5-(3-(1-phenylethyl)ureido)benzoic acid] | > 30000 nM | 614 nM | 784 nM |
| CC(NC(=O)Nc1ccc(S(=O)(=O)Cc2ccc3c(c2)CNC3)c(C(N)=O)c1)c1ccccc1 (stereo not drawn) [H1531, 2-((isoindolin-5-ylmethyl)sulfonyl)-5-(3-(1-phenylethyl)ureido)benzamide] | > 30000 nM | 418 nM | 444 nM |
| CC(NC(=O)Nc1ccc(S(=O)(=O)Cc2ccc3c(c2)CNC3)cc1-c1cn[nH]c1)c1ccccc1 (stereo not drawn) [H1532, 1-(4-((isoindolin-5-ylmethyl)sulfonyl)-2-(1H-pyrazol-4-yl)phenyl)-3-(1-phenylethyl)urea] | > 30000 nM | 1660 nM | 69.5 nM |
| CC(NC(=O)Nc1ccc(S(=O)(=O)Cc2ccc3c(c2)CNC3)cc1-c1cccnc1)c1ccccc1 (stereo not drawn) [H1533, 1-(4-((isoindolin-5-ylmethyl)sulfonyl)-2-(pyridin-3-yl)phenyl)-3-(1-phenylethyl)urea] | > 30000 nM | 1700 nM | 76.2 nM |
| CC(NC(=O)Nc1ccc(S(=O)(=O)Cc2ccc3c(c2)CNC3)cc1-c1ccncc1)c1ccccc1 (stereo not drawn) [H1534, 1-(4-((isoindolin-5-ylmethyl)sulfonyl)-2-(pyridin-4-yl)phenyl)-3-(1-phenylethyl)urea] | > 30000 nM | 1660 nM | 89.5 nM |
| CC(NC(=O)Nc1ccc(S(=O)(=O)Cc2ccc3c(c2)CNC3)cc1-c1cnn(C)c1)c1ccccc1 (stereo not drawn) [H1535, 1-(4-((isoindolin-5-ylmethyl)sulfonyl)-2-(1-methyl-1H-pyrazol-4-yl)phenyl)-3-(1-phenylethyl)urea] | > 30000 nM | 493 nM | 21.4 nM |
| C[C@@H](NC(=O)Nc1ccc(S(=O)(=O)Cc2ccc3c(c2)C(F)CN(C)C3)cc1)c1ccccc1 (stereo partly drawn) [H1539, 1-(4-(((4-fluoro-2-methyl-1,2,3,4-tetrahydroisoquinolin-6-yl)methyl)sulfonyl)phenyl)-3-((R)-1-phenylethyl)urea] | > 30000 nM | 8050 nM | 263 nM |
| C[C@@H](NC(=O)Nc1ccc(S(=O)(=O)Cc2ccc3c(c2)C(F)CNC3)cc1)c1ccccc1 (stereo partly drawn) [H1540, 1-(4-(((4-fluoro-1,2,3,4-tetrahydroisoquinolin-6-yl)methyl)sulfonyl)phenyl)-3-((R)-1-phenylethyl)urea] | > 30000 nM | 7440 nM | 206 nM |
| CC(NC(=O)Nc1ccc(S(=O)(=O)Cc2ccc3c(c2)C(F)(F)CNC3)cc1)c1ccccc1 (stereo not drawn) [H1545, 1-(4-(((4,4-difluoro-1,2,3,4-tetrahydroisoquinolin-6-yl)methyl)sulfonyl)phenyl)-3-(1-phenylethyl)urea] | > 30000 nM | 1720 nM | 19.1 nM |
| CC(NC(=O)Nc1ccc(S(=O)(=O)Cc2ccc3c(c2)C(F)(F)CN(C)C3)cc1)c1ccccc1 (stereo not drawn) [H1546, 1-(4-(((4,4-difluoro-2-methyl-1,2,3,4-tetrahydroisoquinolin-6-yl)methyl)sulfonyl)phenyl)-3-(1-phenylethyl)urea] | > 30000 nM | 1080 nM | 126 nM |
| CC(NC(=O)Nc1ccc(S(=O)(=O)Cc2ccc3c(c2)C(F)(F)CNC3)cc1)c1cccc(Cl)c1Cl (stereo not drawn) [H1547, 1-(1-(2,3-dichlorophenyl)ethyl)-3-(4-(((4,4-difluoro-1,2,3,4-tetrahydroisoquinolin-6-yl)methyl)sulfonyl)phenyl)urea] | > 30000 nM | 456 nM | 35 nM |
| CC(NC(=O)Nc1ccc(S(=O)(=O)Cc2ccc3c(c2)C(F)(F)CN(C)C3)cc1)c1cccc(Cl)c1Cl (stereo not drawn) [H1548, 1-(1-(2,3-dichlorophenyl)ethyl)-3-(4-(((4,4-difluoro-2-methyl-1,2,3,4-tetrahydroisoquinolin-6-yl)methyl)sulfonyl)phenyl)urea] | > 30000 nM | 655 nM | 132 nM |
| CC(NC(=O)Nc1ccc(S(=O)(=O)Cc2ccc3c(c2)CNC3)cc1C(=O)O)c1cccc(Cl)c1Cl (stereo not drawn) [H1549, 2-(3-(1-(2,3-dichlorophenyl)ethyl)ureido)-5-((isoindolin-5-ylmethyl)sulfonyl)benzoic acid] | > 30000 nM | 1.69 nM | 1.2 nM |
